According to paper PMC6515931, “The Efflux Mechanism of Fraxetin-O-Glucuronides in UGT1A9-Transfected HeLa Cells: Identification of Multidrug Resistance-Associated Proteins 3 and 4 (MRP3/4) as the Important Contributors” (Frontiers in Pharmacology, 2019):

What was measured:
MRP4 = biological target: T1, MRP4 (Homo sapiens, UniProt O15439); assay: shRNA-mediated partial silencing of MRP4 in HeLa1A9 cells, glucuronide excretion; format: cell-based; conditions: fraxetin 10 μM; for decreased excretion of glucuronide: HeLa1A9 cells
T1 construct: BCRP, MRP1, MRP3, and MRP4 were detected in both wild-type HeLa and HeLa1A9 cells; endogenous in cells
T1 sequence (O15439 1-1325): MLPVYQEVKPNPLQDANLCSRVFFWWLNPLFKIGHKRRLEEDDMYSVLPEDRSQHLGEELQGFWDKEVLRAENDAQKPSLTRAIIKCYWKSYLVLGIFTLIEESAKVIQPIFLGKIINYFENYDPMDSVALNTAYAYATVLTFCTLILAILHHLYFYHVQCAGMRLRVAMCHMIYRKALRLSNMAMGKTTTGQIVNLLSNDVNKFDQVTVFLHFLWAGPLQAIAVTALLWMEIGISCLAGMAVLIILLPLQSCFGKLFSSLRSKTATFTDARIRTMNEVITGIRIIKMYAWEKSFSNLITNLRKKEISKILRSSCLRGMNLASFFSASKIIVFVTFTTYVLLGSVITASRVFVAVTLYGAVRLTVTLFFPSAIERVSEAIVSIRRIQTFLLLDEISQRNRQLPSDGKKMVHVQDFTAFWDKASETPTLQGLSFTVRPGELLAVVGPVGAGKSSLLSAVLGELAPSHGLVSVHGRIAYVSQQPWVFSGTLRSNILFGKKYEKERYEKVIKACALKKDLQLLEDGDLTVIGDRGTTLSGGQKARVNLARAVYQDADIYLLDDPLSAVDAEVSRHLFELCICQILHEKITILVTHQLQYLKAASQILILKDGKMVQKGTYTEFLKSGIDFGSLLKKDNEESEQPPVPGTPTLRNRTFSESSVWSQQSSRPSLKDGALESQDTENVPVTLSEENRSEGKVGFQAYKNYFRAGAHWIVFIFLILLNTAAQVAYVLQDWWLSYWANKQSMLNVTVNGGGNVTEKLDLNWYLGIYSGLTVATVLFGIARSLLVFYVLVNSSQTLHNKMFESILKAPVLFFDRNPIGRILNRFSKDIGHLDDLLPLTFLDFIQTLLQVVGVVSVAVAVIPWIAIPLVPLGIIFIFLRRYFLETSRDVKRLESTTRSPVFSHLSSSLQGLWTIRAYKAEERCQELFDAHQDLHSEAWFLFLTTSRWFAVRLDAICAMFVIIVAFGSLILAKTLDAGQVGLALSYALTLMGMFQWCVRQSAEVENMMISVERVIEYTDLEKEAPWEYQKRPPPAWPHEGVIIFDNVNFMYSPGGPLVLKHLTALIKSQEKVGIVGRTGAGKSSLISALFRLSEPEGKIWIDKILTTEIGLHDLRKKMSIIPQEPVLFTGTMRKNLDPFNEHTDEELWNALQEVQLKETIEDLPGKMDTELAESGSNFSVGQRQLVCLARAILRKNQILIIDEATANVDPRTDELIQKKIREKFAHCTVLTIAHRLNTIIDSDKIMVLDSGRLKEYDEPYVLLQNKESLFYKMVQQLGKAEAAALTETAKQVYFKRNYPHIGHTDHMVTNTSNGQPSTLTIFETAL
Experimental: (§1) The HeLa1A9 cells were pretreated and incubated with fraxetin solutions as reported previously ([Jiang et al., 2011]). Before assays, the HeLa1A9 cells were washed twice with prewarmed (37°C) Hank’s balanced salt solution (HBSS; pH = 7.4). After that, fraxetin (10 μM) dissolved in 2 mL of HBSS was incubated with the HeLa1A9 cells. At each time point (30, 60, 90, and 120 min), 200 μL of the culture supernatant from each well was collected as samples, and an equal volume of a loading media was used to replenish each well. Next, the collected samples were each mixed with 100 μL ice-cold acetonitrile. The supernatants were subjected to UHPLC analysis after centrifugation (10 min at 13800 × g).
(§2) In glucuronide excretion assays, biological inhibition mainly including shRNA-mediated partial silencing of BCRP and MRPs in HeLa cells was usually performed to evaluate the role of each efflux transporter ([Quan et al., 2015]; [Sun et al., 2015]; [Qin et al., 2018a]). Established shRNA_BCRP, shRNA_MRP1, shRNA_MRP3, and shRNA_MRP4 plasmids were […] transfected into HeLa1A9 cells to develop the stably shRNA-transfected cell lines, named HeLa1A9-BCRP-shRNA cells, HeLa1A9-MRP1-shRNA, HeLa1A9-MRP3-shRNA, and HeLa1A9-MRP4-shRNA cells, respectively. After transfection for 2 days, these engineered HeLa1A9 cells were subjected to fraxetin-O-glucuronide excretion experiments. The control scrambled shRNA served as a negative control.
(§3) In addition, the excretion rate of intracellular glucuronides was calculated using Equ. 2. Fraction metabolized or the fmet value was defined as the fraction of a dose metabolized based on Equ. 3. The fmet value was regarded as the more appropriate parameter to reflect the extent of drug metabolism in intact cells in the presence of a transporter–enzyme interplay.
(§4) (2) Excretion rate=VdC(excretedglucuronide)/dt
(§5) (3) fmet=excreted glucuronide+intracellular glucuronide/dosed aglycone
(§6) where V is the volume of the incubation medium, C is the excreted cumulative concentration of glucuronides, and t denotes the incubation time. Here, dC(excreted glucuronide)/dt describes the changes in glucuronide levels with time.

HeLa1A9 cells = assay: Glucuronide excretion experiments in HeLa1A9 cells; format: cell-based, human; conditions: for excretion with elevation of the fraxetin concentration: fraxetin 5, 10 and 20 μM, HeLa1A9 cells
Experimental: as §1, with “After that, fraxetin (10 μM) dissolved in 2 mL of HBSS was incubated with the HeLa1A9 cells.” left out
as §3, §4, §6

UGT1A9 [1] = biological target: T2, UGT1A9 (Homo sapiens, UniProt O60656)
T2 sequence (O60656 26-530): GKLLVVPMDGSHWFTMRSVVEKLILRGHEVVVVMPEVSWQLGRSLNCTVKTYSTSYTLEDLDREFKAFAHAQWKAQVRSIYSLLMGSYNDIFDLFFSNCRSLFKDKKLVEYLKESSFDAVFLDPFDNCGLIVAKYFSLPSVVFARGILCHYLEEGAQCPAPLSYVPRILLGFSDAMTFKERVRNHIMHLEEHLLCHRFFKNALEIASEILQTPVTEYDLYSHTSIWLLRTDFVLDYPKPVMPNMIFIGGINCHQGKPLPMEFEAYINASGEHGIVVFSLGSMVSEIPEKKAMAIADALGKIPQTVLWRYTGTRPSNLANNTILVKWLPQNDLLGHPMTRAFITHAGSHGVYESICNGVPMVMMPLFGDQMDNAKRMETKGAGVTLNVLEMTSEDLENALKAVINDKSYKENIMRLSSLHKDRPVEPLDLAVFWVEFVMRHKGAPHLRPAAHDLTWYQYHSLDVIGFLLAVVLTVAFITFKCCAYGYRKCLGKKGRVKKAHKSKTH
Experimental: (§7) The incubation system was slightly modified on the basis of a previously published article ([Qin et al., 2018a]). […] After preincubation at 37°C for 5 min, UDPGA (3.5 mM) was added to the reaction system, and the mixture was incubated for another 30 min. These reactions were terminated by the addition of an equal volume of ice-cold acetonitrile. The mixed samples were centrifuged at 13800 × g for 10 min, and the supernatant was analyzed by ultra-high-performance liquid chromatography (UHPLC). All the experiments were conducted in triplicate.
The enzyme kinetic parameters were obtained by fitting appropriate kinetic models to the experimental data in GraphPad Prism V5 software (San Diego, CA, United States). The best model was selected based on visual inspection of the Eadie–Hofstee plots ([Qin et al., 2018b]). In brief, if the Eadie–Hofstee plot was linear, formation rates (V) of glucuronides at different substrate concentrations (C) were fitted to the standard equations (1): […]
Where Km is the Michaelis–Menten constant, and Vmax is the maximum rate of glucuronidation. The intrinsic clearance (CLint) was computed as Vmax/Km.

MRP3 = biological target: T3, MRP3 (Homo sapiens, UniProt O15438); assay: shRNA-mediated partial silencing of MRP3 in HeLa1A9 cells, glucuronide excretion; format: cell-based; conditions: fraxetin 10 μM; for decrease in fraction metabolized (fmet; overall cellular glucuronidation) / reduction in excretion rate / reduction in excreted glucuronide: MRP3 knockdown; for reduction in excreted glucuronide: HeLa1A9 cells; for elevation of intracellular glucuronide level: MRP3 silencing
T3 construct: BCRP, MRP1, MRP3, and MRP4 were detected in both wild-type HeLa and HeLa1A9 cells; endogenous in cells
Experimental: as §1, §2, §3, §4, §5, §6

UGT1A9 [2] = biological target: T2, UGT1A9; assay: Effect of Ko143 and MK571 on fraxetin-O-glucuronidation activity of UGT1A9; conditions: Ko143 20 μM
Experimental: as §7
(§8) Other detailed operations were the same as described above.

HeLa1A9 cell lysate = biological target: T4, HeLa1A9 cell lysate (Homo sapiens, UniProt O60656); assay: Effect of Ko143 and MK571 on fraxetin-O-glucuronidation activity of HeLa1A9 cell lysate; format: biochemical; conditions: Ko143 20 μM
T4 sequence (O60656 26-530): T2 sequence (O60656 26-530)
Experimental: as §7, §8

UGT1A9 [3] = biological target: T2, UGT1A9; assay: Inhibition of fraxetin-O-glucuronide formation by selective UGT1A9 inhibitors; format: biochemical; parameters: purchased Corning Biosciences; conditions: fraxetin 4 and 20 μM; magnolol 1 μM, niflumic acid 10 μM, androsterone 10 μM
Experimental: as §7, §8

[4] = substrate: COc1cc2ccc(=O)oc2c(O)c1O; assay: cells, lysate or membranes named; conditions: UGT1A9 enzyme, pH 7.4, 37.0 °C
[5] = substrate: CC(C)c1cccc(C(C)C)c1O; assay: cells, lysate or membranes named; conditions: other: metabolite propofol-G, pH 7.4, 37.0 °C
[6] = substrate: COc1cc2ccc(=O)oc2c(O)c1O; assay: Glucuronidation kinetics by HeLa1A9 cell lysate; format: in vitro ADME, human
Experimental: HeLa1A9 cells were grown in 10 cm dishes for 3 to 4 days and then were washed and harvested in 50 mM Tris buffer (pH = 7.4). The collected cells were sonicated using a tight-fitting Dounce homogenizer in an ice-cold water bath (4°C). […] Next, the cell lysates were centrifuged at 4°C (13800 × g for 10 min). The supernatant to be used in the UGT glucuronidation activity assay was collected, and its protein concentration was measured by the bicinchoninic acid assay (BCA; Beyotime, Shanghai, China).

[7] = other: metabolite G1, pH 7.4, 37.0 °C
[8] = other: metabolite G2, pH 7.4, 37.0 °C

T3 sequence (O15438 whole entry): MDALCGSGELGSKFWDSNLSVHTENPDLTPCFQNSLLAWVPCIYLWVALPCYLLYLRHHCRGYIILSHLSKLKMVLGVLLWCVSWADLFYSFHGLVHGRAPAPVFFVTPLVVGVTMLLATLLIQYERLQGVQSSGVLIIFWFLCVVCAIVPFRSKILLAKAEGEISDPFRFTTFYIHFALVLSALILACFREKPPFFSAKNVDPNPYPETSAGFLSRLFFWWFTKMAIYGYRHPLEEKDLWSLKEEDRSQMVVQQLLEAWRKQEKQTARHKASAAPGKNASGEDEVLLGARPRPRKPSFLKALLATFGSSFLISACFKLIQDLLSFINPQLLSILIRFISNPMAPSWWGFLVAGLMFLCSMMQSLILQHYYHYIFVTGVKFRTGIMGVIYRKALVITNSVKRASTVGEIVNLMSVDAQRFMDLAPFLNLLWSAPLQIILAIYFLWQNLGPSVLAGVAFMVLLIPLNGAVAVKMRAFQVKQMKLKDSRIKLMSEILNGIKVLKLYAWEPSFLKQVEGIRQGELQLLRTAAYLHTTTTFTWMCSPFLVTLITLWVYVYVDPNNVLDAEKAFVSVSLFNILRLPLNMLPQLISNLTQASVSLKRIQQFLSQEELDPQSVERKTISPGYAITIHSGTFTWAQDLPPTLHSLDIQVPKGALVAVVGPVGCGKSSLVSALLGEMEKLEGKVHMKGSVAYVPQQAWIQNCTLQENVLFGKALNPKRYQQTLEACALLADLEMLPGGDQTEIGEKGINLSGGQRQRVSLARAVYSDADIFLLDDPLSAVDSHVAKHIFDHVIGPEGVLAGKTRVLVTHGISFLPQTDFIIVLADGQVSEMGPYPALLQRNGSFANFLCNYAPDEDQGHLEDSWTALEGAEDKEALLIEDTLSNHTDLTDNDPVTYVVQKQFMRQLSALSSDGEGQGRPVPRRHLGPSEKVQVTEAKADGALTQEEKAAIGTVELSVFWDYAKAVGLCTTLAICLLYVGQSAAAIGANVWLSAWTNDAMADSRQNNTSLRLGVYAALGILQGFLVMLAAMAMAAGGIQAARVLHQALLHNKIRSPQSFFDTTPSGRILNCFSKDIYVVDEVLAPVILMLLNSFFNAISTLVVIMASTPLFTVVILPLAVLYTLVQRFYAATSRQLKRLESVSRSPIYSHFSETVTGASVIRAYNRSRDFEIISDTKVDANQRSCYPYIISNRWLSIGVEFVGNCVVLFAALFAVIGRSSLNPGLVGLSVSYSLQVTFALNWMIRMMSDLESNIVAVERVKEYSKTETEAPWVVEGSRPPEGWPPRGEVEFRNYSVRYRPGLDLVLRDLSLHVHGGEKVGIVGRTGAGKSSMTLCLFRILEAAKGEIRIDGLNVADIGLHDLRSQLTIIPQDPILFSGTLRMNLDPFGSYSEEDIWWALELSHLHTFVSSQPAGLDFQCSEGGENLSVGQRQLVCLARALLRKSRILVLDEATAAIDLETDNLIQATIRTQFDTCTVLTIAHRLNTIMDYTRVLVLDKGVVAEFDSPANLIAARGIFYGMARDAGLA

## COc1cc2ccc(=O)oc2c(O[C@@H]2O[C@H](C(=O)O)[C@@H](O)[C@H](O)[C@H]2O)c1O [G1, fraxetin-8-O-glucuronide]
MRP4
  decrease in fraction metabolized (fmet): 22.7%
  elevation of intracellular glucuronide: 42.0%
  reduction in excretion rate: 34.8%
  decreased excretion of glucuronide: 33.6–51.1%
HeLa1A9 cells
  excretion with elevation of the fraxetin concentration: markedly increased
UGT1A9 [1]
  Km: 8 to 16 µM
MRP3
  decrease in fraction metabolized (fmet; overall cellular glucuronidation): 24.1%
  reduction in excretion rate: 29.1%
  reduction in excreted glucuronide: 19.8–39.4%
  elevation of intracellular glucuronide level: 30.2%

## COc1cc2ccc(=O)oc2c(O)c1O[C@@H]1O[C@H](C(=O)O)[C@@H](O)[C@H](O)[C@H]1O [G2, fraxetin-7-O-glucuronide]
MRP4
  decrease in fraction metabolized (fmet): 23.1%
  elevation of intracellular glucuronide: 52.4%
  reduction in excretion rate: 32.3%
  decreased excretion of glucuronide: 33.0–42.4%
HeLa1A9 cells
  excretion with elevation of the fraxetin concentration: markedly increased
UGT1A9 [1]
  Km: 8 to 16 µM
MRP3
  decrease in fraction metabolized (fmet; overall cellular glucuronidation): 18.6%
  reduction in excretion rate: 21.1%
  reduction in excreted glucuronide: 15.1–31.9%
  elevation of intracellular glucuronide level: 45.4%

## COc1ccc2c3c([nH]c2c1)[C@H](CC(C)C)N1C(=O)[C@H](CCC(=O)OC(C)(C)C)NC(=O)[C@@H]1C3 [Ko143]
UGT1A9 [2]
  inhibition of fraxetin-O-glucuronidation, G1: 41.5%
  inhibition of fraxetin-O-glucuronidation, G2: 24.9%
HeLa1A9 cell lysate
  inhibition of fraxetin-O-glucuronidation, G1: 20.4%
  inhibition of fraxetin-O-glucuronidation, G2: 29.3%

## C=CCc1ccc(O)c(-c2cc(CC=C)ccc2O)c1 [magnolol]
UGT1A9 [3]
  effect on formation of G1 and G2: significantly inhibited

## O=C(O)c1cccnc1Nc1cccc(C(F)(F)F)c1 [niflumic acid]
UGT1A9 [3]
  effect on formation of G1 and G2: significantly inhibited

## CC(C)c1cccc(C(C)C)c1O[C@@H]1O[C@H](C(=O)O)[C@@H](O)[C@H](O)[C@H]1O [propofol-O-glucuronide]
HeLa1A9 cells; propofol 40 μM incubated with HeLa1A9 cells
  excretion rate: 0.053 pmol/min
HeLa1A9 cells; propofol 80 μM incubated with HeLa1A9 cells
  excretion rate: 0.070 pmol/min

B1: UGT1A9 (Homo sapiens) (protein)
chain: T2 sequence (O60656 26-530)
[4]; other: metabolite G1
  Km: 16 ± 2 µM
  Vmax: 0.00292 µmol/min/mg
  Vmax/Km: 180 µL/min/mg
[4]; other: metabolite G2
  Km: 10 ± 1 µM
  Vmax: 0.00144 µmol/min/mg
  Vmax/Km: 150 µL/min/mg
[5]; UGT1A9 enzyme
  Km: 53 ± 6 µM

B2: HeLa1A9 cell lysate (Homo sapiens) (protein)
chain: T2 sequence (O60656 26-530)
notes: expressed in transfected cells; host or cells: HeLa cells stably transfected with the UGT1A9 gene (HeLa1A9); lysate supernatant
[5]; HeLa1A9 cell lysate
  Km: 59 ± 13 µM
[6]; [7]
  Km: 13 ± 2 µM
  Vmax: 0.00011 ± 5e-06 µmol/min/mg
  Vmax/Km: 9 ± 1 µL/min/mg
[6]; [8]
  Km: 8 ± 1 µM
  Vmax: 4.2e-05 ± 2e-06 µmol/min/mg
  Vmax/Km: 5 ± 1 µL/min/mg
